Results from ChEMBL document CHEMBL1127886, “Inhibition of the RTEM-1 -lactamase by boronic acids” (Bioorg Med Chem Lett, 1994).

Target: Beta-lactamase TEM (Escherichia coli, UniProt P62593)
Test: Inhibitory constant was determined against class A RTEM-1 Beta-lactamase from Escherichia coli

Beta-lactamase TEM, sequence (P62593 whole entry): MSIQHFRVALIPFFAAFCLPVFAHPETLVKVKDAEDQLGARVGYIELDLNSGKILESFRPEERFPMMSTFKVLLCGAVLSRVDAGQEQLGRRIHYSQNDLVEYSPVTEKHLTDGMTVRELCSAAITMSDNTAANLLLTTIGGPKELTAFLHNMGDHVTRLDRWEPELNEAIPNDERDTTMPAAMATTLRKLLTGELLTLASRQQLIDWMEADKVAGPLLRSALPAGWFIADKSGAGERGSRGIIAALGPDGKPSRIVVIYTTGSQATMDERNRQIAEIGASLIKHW

| Structure (SMILES) | Ki [µM] |
| --- | --- |
| OB(O)c1cccc(-c2ccccc2)c1 | 13.9 |
| OB(O)CCc1cccc2ccccc12 | 101 |
| OB(O)CCc1ccc(C(F)(F)F)cc1 | 43 |
| Cc1ccc(CCB(O)O)cc1 | 58 |
| OB(O)c1ccc(Cl)cc1Cl | 94 |
| OB(O)c1ccc(Cl)c(Cl)c1 | 143 |
| Nc1cccc(B(O)O)c1 | 3700 |
| OB(O)c1ccc(Br)cc1 | 28 |
| O=C(O)c1ccc(CCB(O)O)cc1 | 49 |
| COc1ccc(B(O)O)cc1 | 670 |
| OB(O)CCc1ccc(Cl)cc1 | 41 |
| Cc1ccccc1CCB(O)O | 141 |
| OB(O)CCc1ccc2ccccc2c1 | 44 |
| OB(O)CCC1CCCCC1 | 276 |
| OB(O)c1cccc(Br)c1 | 83 |
| OB(O)c1ccc(F)c(Cl)c1 | 152 |
| OB(O)CCc1ccccc1Cl | 106 |
| Cc1cccc(CCB(O)O)c1 | 83 |
| COc1cccc(CCB(O)O)c1 | 50 |
| OB(O)c1ccccc1 [PHENYLBORONIC ACID] | 491 |
